From the NIST ThermoML archive (doi:10.1021/je400783h)

Experiment: refractive index (Na D-line) (dimensionless)
Settings: 101.33 kPa, Liquid, Standard Abbe refractometry

Cc1ccc(C=O)o1 [5-methylfurfural]
Settings	refractive index
283.15 K	1.5364
285.65 K	1.53529
288.15 K	1.53393
290.65 K	1.53269
293.15 K	1.53144
295.65 K	1.53019
298.15 K	1.5289
300.65 K	1.52765
303.15 K	1.5264
305.65 K	1.52513
308.15 K	1.52385
310.65 K	1.52257
313.15 K	1.5213
315.65 K	1.52
318.15 K	1.51872
320.65 K	1.51742
323.15 K	1.51615
325.65 K	1.51486
328.15 K	1.51357
330.65 K	1.51229
333.15 K	1.511
335.65 K	1.50972
338.15 K	1.50842

OCC1CCCO1 (stereo unspecified) [2-tetrahydrofurylmethanol]
Settings	refractive index
283.15 K	1.45646
285.65 K	1.45549
288.15 K	1.45452
290.65 K	1.45356
293.15 K	1.45259
295.65 K	1.45162
298.15 K	1.45063
300.65 K	1.44965
303.15 K	1.44867
305.65 K	1.44769
308.15 K	1.44671
310.65 K	1.44572
313.15 K	1.44473
315.65 K	1.44375
318.15 K	1.44274
320.65 K	1.44176
323.15 K	1.44072
325.65 K	1.4397
328.15 K	1.43871
330.65 K	1.43772
333.15 K	1.43668
335.65 K	1.43567
338.15 K	1.43466
